Laboratory results taken from PubChem BioAssay AID1053169 (The Scripps Research Institute Molecular Screening Center, 2014).
Calls of active or inactive are those of the source. The rule behind the calls is not given here.

Target: Methyl-CpG-binding domain protein 2 (Homo sapiens) (UniProt Q9UBB5)
Assay: inhibitors of MBD2 binding to methylated DNA, dose response, biochemical, TR-FRET, DNA-binding domain, late stage (AID 1053169)
Conditions: TR-FRET MBD2-DBD binding to methylated oligonucleotide

Methyl-CpG-binding domain protein 2 (Homo sapiens), sequence (Q9UBB5 whole entry, looked up, the tested form may be a part): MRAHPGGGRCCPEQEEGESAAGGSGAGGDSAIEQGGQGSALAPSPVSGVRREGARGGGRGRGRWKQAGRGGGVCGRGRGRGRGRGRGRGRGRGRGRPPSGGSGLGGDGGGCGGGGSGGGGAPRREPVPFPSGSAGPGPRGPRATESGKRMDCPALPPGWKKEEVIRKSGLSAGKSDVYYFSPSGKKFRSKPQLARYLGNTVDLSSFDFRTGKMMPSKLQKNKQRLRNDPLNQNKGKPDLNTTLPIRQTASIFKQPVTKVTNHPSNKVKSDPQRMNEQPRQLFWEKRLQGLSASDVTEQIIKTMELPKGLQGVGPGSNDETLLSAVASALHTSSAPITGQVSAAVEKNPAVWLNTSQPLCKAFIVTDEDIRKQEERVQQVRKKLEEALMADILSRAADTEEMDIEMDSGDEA

IC50, inactive:
O=C(CSc1nc(-c2ccccc2)c(-c2ccccc2)o1)N1CCOCC1 > 43.8 µM, COc1ccc(NC(=O)COC(=O)CCc2ccc(S(=O)(=O)N3CCOCC3)cc2)cc1Cl > 43.8 µM, CCc1cccc(OCC(=O)Nc2ccc(S(=O)(=O)Nc3ccccn3)cc2)c1 > 43.8 µM, CCOc1ccc(S(=O)(=O)N2CCCC(C(=O)NCC3CCCO3)C2)cc1Cl (stereo not given) > 43.8 µM, COc1ccc(C(=O)N2CCC(C(=O)Nc3ccc(C)cc3)CC2)cc1 > 43.8 µM, COc1ccccc1C(=O)COC(=O)c1ccc(N(C)C)cc1 > 43.8 µM, O=C(CSc1ccccn1)Nc1ccc(N2CCOCC2)cc1 > 43.8 µM, COc1ccc(NC(=O)CN2CCN(c3ccccc3C)CC2)cc1 > 43.8 µM, CC(=O)N(c1ccccc1)c1nc(/C=C/C(=O)Nc2c(C)cc(C)cc2C)cs1 > 43.8 µM, CSc1ccc(OC2CCCCC2NS(=O)(=O)c2ccc(Cl)cc2)cc1 (stereo not given) > 43.8 µM, CCOC(=O)c1ccc(NC(=O)COc2ccc(CNCCO)cc2OCC)cc1 > 43.8 µM, CC(C)C(=O)Nc1nnc(SCC(=O)NC2CCCC2)s1 > 43.8 µM, COc1ccc(NC(=O)Cn2cc(C(C)=O)c3ccccc32)cc1 > 43.8 µM, CC(C)n1nc(C(=O)Nc2nc3ccccc3[nH]2)c2ccccc2c1=O > 43.8 µM, Cc1ccc(Cl)cc1N1CCN(S(=O)(=O)c2ccc3c(c2)NC(=O)C(C)C(=O)N3)CC1 (stereo not given) > 43.8 µM, CSc1ccc(OC2CCCCC2NS(=O)(=O)c2ccccc2)cc1 (stereo not given) > 43.8 µM, CCOC(=O)c1oc2ccc(CNC(C)(C)C)c(Cl)c2c1C > 43.8 µM, O=C(Nc1ccc(OCc2ccccc2)cc1)c1ccccc1 > 43.8 µM, CCCCn1c(NC(C)CC)nc2c1c(=O)[nH]c(=O)n2C (stereo not given) > 43.8 µM, Cc1cc(C)n2nc(CC(=O)NCc3ccc(F)cc3)nc2n1 > 43.8 µM
